{"source": "patent US8518973B2", "about": "“Compounds having 4-pyridylalkylthio group as a substituent” (Santen Pharmaceutical Co., Ltd., priority 2003, dated 2013)"}
{"system": "VEGF-induced HUVEC growth", "assay": "VEGF-induced HUVEC growth reaction evaluation system (cell growth inhibitory action test)", "type": "cell-based", "conditions": "Homo sapiens, 72 h, 20 μg/ml test compound solution added 5 μl per well (100 μl), VEGF solution 400 ng/ml 5 μl per well, three days, absorbance at 450 nm, read-out: Cell growth inhibition rate (%)", "experimental": "Cell growth inhibitory action tests were carried out using a VEGF-induced HUVEC growth reaction evaluation system (HUVEC stands for human umbilical vein endothelial cells), which is one of widely-used methods of evaluating in vitro angiogenesis inhibitory effects of drugs.\nAs one of widely-used methods of evaluating angiogenesis inhibitory effects of drugs, a cell growth inhibitory action test using a VEGF-induced HUVEC growth reaction evaluation system was reported in Cancer Res., 59, 99-106(1999). According to the method described in the above-mentioned literature, cell growth inhibitory action tests of the present compounds were carried out, their cell growth inhibition rates were calculated, and angiogenesis inhibitory effects of the present compounds were evaluated using the obtained rates as indexes.\nEach test compound was dissolved in dimethyl sulfoxide (hereinafter abbreviated as “DMSO”), and the obtained solution was diluted with commercially available phosphoric acid buffer solution (hereinafter abbreviated as “PBS”) to prepare a 20 μg/ml test compound solution.\nHUVEC was suspended in a 0.5% fetal bovine serum (hereinafter abbreviated as “FBS”)-containing F12K medium to prepare a 2×10^4 cells/ml HUVEC suspension.\nVEGF was dissolved in 0.1% bovine serum albumin-containing PBS, and the obtained solution was diluted with the 0.5% FBS-containing F12K medium to prepare a 400 ng/ml VEGF solution.\n• 1) The HUVEC suspension was inoculated in each amount of 100 μl into each well of a 96-well plate coated with I type collagen (2×10^3 cells per well). • 2) One day after inoculation, the test compound solution was added in an amount of 5 μl per well. • 3) One hour after adding the test compound solution, the VEGF solution was added in an amount of 5 μl per well. • 4) Three days after adding the VEGF solution, cell counting kit-8(Dojin Chemical Co., Ltd.) was added in an amount of 10 μl per well. • 5) After three hours, the above-mentioned plate was attached to an absorptiometer (multi label counter ARVO), and absorbance at 450 nm of each well suspension (hereinafter referred to as “test compound suspension”) was measured. • 6) A test was carried out in the same manner as in 1) to 5) except that 1.0% DMSO was used instead of the test compound solution.\nIncubation was carried out under conditions of 37° C., 5% carbon dioxide and 95% air in an incubator throughout the above-mentioned test steps.\nCell growth inhibition rates, which are indexes of angiogenesis inhibitory effects, were calculated by the following calculation equation.", "units": {"inhibition at 20 µg/mL (stock)": "%"}}
{"molecule": "O=C(Nc1ccc(F)c(Cl)c1)c1cccnc1SCc1ccncc1", "note": "[1-75, N-(3-Chloro-4-fluorophenyl)-2-(4-pyridylmethylthio)pyridine-3-carboxamide]", "inhibition at 20 µg/mL (stock)": 100}
{"molecule": "O=C(Nc1ccc(C(F)(F)F)cc1)c1ccsc1SCc1ccncc1", "note": "[1-290, 2-(4-Pyridylmethylthio)-N-(4-trifluoromethylphenyl)thiophene-3-carboxamide]", "inhibition at 20 µg/mL (stock)": 100}
{"molecule": "Cc1cc(C)cc(NC(=O)c2cccnc2SCc2ccnc(F)c2)c1", "note": "[1-213, N-(3,5-Dimethylphenyl)-2-(2-fluoropyridin-4-ylmethylthio)pyridine-3-carboxamide]", "inhibition at 20 µg/mL (stock)": 100}
{"molecule": "CNC(=O)c1cc(CSc2ncccc2C(=O)Nc2cc(C)cc(C)c2)ccn1", "note": "[7-3, N-(3,5-Dimethylphenyl)-2-(2-methylaminocarbonylpyridin-4-ylmethylthio)pyridine-3-carboxamide]", "inhibition at 20 µg/mL (stock)": 100}
{"molecule": "Cc1cc(C)cc(NC(=O)c2cccnc2SCc2ccnc(Cl)c2)c1", "note": "[1-226, 2-(2-Chloropyridin-4-ylmethylthio)-N-(3,5-dimethylphenyl)pyridine-3-carboxamide]", "inhibition at 20 µg/mL (stock)": 100}
{"molecule": "O=C(Nc1cnc2ccccc2c1)c1ccccc1SCc1ccncc1", "note": "[1-95, 2-(4-Pyridylmethylthio)-N-(3-quinolyl)benzamide]", "inhibition at 20 µg/mL (stock)": 100}
{"molecule": "Cc1ccc(NC(=O)c2sccc2SCc2ccncc2)cc1F", "note": "[1-248, N-(3-Fluoro-4-methylphenyl)-3-(4-pyridylmethylthio)thiophene-2-carboxamide]", "inhibition at 20 µg/mL (stock)": 75}
{"molecule": "COc1ccc(NC(=O)c2cccnc2SCc2ccncc2)cc1OC", "note": "[1-72, N-(3,4-Dimethoxyphenyl)-2-(4-pyridylmethylthio)pyridine-3-carboxamide]", "inhibition at 20 µg/mL (stock)": 100}
{"molecule": "O=C(Nc1cc2ccccc2cn1)c1ccccc1SCc1ccncc1", "note": "[1-209, N-(3-Isoquinolyl)-2-(4-pyridylmethylthio)benzamide]", "inhibition at 20 µg/mL (stock)": 99}
{"molecule": "Cc1cc(C)cc(NC(=O)c2cccnc2SCc2ccnc(C(=O)Nc3ccc(Cl)cc3)c2)c1", "note": "[7-2, 2-[2-(4-Chlorophenylaminocarbonyl)pyridin-4-ylmethylthio]-N-(3,5-dimethylphenyl)pyridine-3-carboxamide]", "inhibition at 20 µg/mL (stock)": 100}
{"molecule": "Cc1cccc(NC(=O)c2cccnc2SCc2cc[n+]([O-])cc2)c1", "note": "[4-3, N-(3-Methylphenyl)-2-(1-oxopyridin-4-ylmethylthio)pyridine-3-carboxamide]", "inhibition at 20 µg/mL (stock)": 100}
{"molecule": "CN(C)c1ccc(NC(=O)c2cccnc2SCc2ccncc2)cc1", "note": "[1-64, N-(4-Dimethylaminophenyl)-2-(4-pyridylmethylthio)pyridine-3-carboxamide]", "inhibition at 20 µg/mL (stock)": 100}
{"molecule": "O=C(Nc1ccc(OC(F)(F)F)cc1)c1sccc1SCc1ccncc1", "note": "[1-273, 3-(4-Pyridylmethylthio)-N-(4-trifluoromethoxyphenyl)thiophene-2-carboxamide]", "inhibition at 20 µg/mL (stock)": 100}
{"molecule": "CC(C)Oc1ccc(NC(=O)c2sccc2SCc2ccncc2)cc1", "note": "[1-246, N-(4-Isopropoxyphenyl)-3-(4-pyridylmethylthio)thiophene-2-carboxamide]", "inhibition at 20 µg/mL (stock)": 76}
{"molecule": "Cc1cc(C)cc(NC(=O)c2cccnc2SCc2ccnc(C(N)=O)c2)c1", "note": "[8-1, 2-(2-Carbamoylpyridin-4-ylmethylthio)-N-(3,5-dimethylphenyl)pyridine-3-carboxamide]", "inhibition at 20 µg/mL (stock)": 100}
{"molecule": "Cc1cc(C)cc(NC(=O)c2ccsc2SCc2ccncc2)c1", "note": "[1-291, N-(3,5-Dimethylphenyl)-2-(4-pyridylmethylthio)thiophene-3-carboxamide]", "inhibition at 20 µg/mL (stock)": 100}
{"molecule": "Cc1cc(CSc2ncccc2C(=O)Nc2ccc(OC(F)(F)F)cc2)ccn1", "note": "[1-308, 2-(2-Methylpyridin-4-ylmethylthio)-N-(4-trifluoromethoxyphenyl)pyridine-3-carboxamide]", "inhibition at 20 µg/mL (stock)": 92}
{"molecule": "Cc1cc(C)cc(NC(=O)c2cccnc2SCc2ccnc(C#N)c2)c1", "note": "[1-236, 2-(2-Cyanopyridin-4-ylmethylthio)-N-(3,5-dimethylphenyl)pyridine-3-carboxamide]", "inhibition at 20 µg/mL (stock)": 100}
{"molecule": "O=C(Nc1ccc2c(c1)CCC2)c1sccc1SCc1ccncc1", "note": "[1-283, N-(5-Indanyl)-3-(4-pyridylmethylthio)thiophene-2-carboxamide]", "inhibition at 20 µg/mL (stock)": 100}
{"molecule": "COc1cc(OC)c(NC(=O)c2cccnc2SCc2ccncc2)cc1Cl", "note": "[1-85, N-(5-Chloro-2,4-dimethoxyphenyl)-2-(4-pyridylmethylthio)pyridine-3-carboxamide]", "inhibition at 20 µg/mL (stock)": 95}
{"molecule": "CC(C)Oc1ccc(NC(=O)c2cccnc2SCc2ccncc2)cc1", "note": "[1-55, N-(4-Isopropoxyphenyl)-2-(4-pyridylmethylthio)pyridine-3-carboxamide]", "inhibition at 20 µg/mL (stock)": 100}
{"molecule": "Cc1cc(C)cc(NC(=O)c2sccc2SCc2ccnc(Cl)c2)c1", "note": "[1-251, 3-(2-Chloropyridin-4-ylmethylthio)-N-(3,5-dimethylphenyl)thiophene-2-carboxamide]", "inhibition at 20 µg/mL (stock)": 77}
{"molecule": "Cc1cc(C)cc(NC(=O)c2cccnc2SCc2ccnc(C)c2)c1", "note": "[1-307, N-(3,5-Dimethylphenyl)-2-(2-methylpyridin-4-ylmethylthio)pyridine-3-carboxamide]", "inhibition at 20 µg/mL (stock)": 100}
{"molecule": "COc1ccc(NC(=O)c2ccccc2SCc2ccncc2)cc1OC", "note": "[1-93, N-(3,4-Dimethoxyphenyl)-2-(4-pyridylmethylthio)benzamide]", "inhibition at 20 µg/mL (stock)": 72}
{"molecule": "Cc1cc(NC(=O)c2sccc2SCc2ccncc2)ccc1F", "note": "[1-252, N-(4-Fluoro-3-methylphenyl)-3-(4-pyridylmethylthio)thiophene-2-carboxamide]", "inhibition at 20 µg/mL (stock)": 100}
{"molecule": "O=C(Nc1cnc2ccccc2c1)c1cccnc1SCc1ccncc1", "note": "[1-20, 2-(4-Pyridylmethylthio)-N-(3-quinolyl)pyridine-3-carboxamide]", "inhibition at 20 µg/mL (stock)": 100}
{"molecule": "O=C(Nc1ccc(Cl)c(C(F)(F)F)c1)c1cccnc1SCc1ccncc1", "note": "[1-74, N-(4-Chloro-3-trifluoromethylphenyl)-2-(4-pyridylmethylthio)pyridine-3-carboxamide]", "inhibition at 20 µg/mL (stock)": 100}
{"molecule": "Cc1cccc(NC(=O)c2cscc2SCc2ccncc2)c1", "note": "[1-292, N-(3-Methylphenyl) 4 (4-pyridylmethylthio)thiophene-3 carboxamide]", "inhibition at 20 µg/mL (stock)": 100}
{"molecule": "O=C(Nc1ccc(OC(F)(F)F)cc1)c1cccnc1SCc1ccnc(Cl)c1", "note": "[1-227, 2-(2-Chloropyridin-4-ylmethylthio)-N-(4-trifluoromethoxyphenyl)pyridine-3-carboxamide]", "inhibition at 20 µg/mL (stock)": 60}
{"molecule": "O=C(Nc1cc(F)cc(C(F)(F)F)c1)c1cccnc1SCc1ccncc1", "note": "[1-83, N-(3-Fluoro-5-trifluoromethylphenyl)-2-(4-pyridylmethylthio)pyridine-3-carboxamide]", "inhibition at 20 µg/mL (stock)": 100}
{"molecule": "CCCNC(=O)c1cc(CSc2ncccc2C(=O)Nc2cc(C)cc(C)c2)ccn1", "note": "[7-1, N-(3,5-Dimethylphenyl)-2(2-n-propylaminocarbonylpyridin-4-yl-methylthio)pyridine 3 carboxamide]", "inhibition at 20 µg/mL (stock)": 100}
{"molecule": "Cc1cc(NC(=O)c2cccnc2SCc2cc[n+]([O-])cc2)ccc1F", "note": "[4-7, N-(4-Fluoro-3-methylphenyl)-2-(1-oxopyridin-4-ylmethylthio)pyridine-3-carboxamide]", "inhibition at 20 µg/mL (stock)": 100}
{"molecule": "CN(C)c1ccc(NC(=O)c2ccccc2SCc2ccncc2)cc1", "note": "[1-91, N-(4-Dimethylaminophenyl)-2-(4-pyridylmethylthio)benzamide]", "inhibition at 20 µg/mL (stock)": 100}
